# Tested on: turkey poults of stock BUT 9
# Test: Free-choice feed consumption test in 6 day turkey poults
# Assay type: in vivo
# Conditions: per cage of 5 turkey poults
# Excerpt: Test item no. 2 therefore comprises 0.05% of olfactory additive for 99.95% of methionine hydroxyl-analog. The test items are incorporated into a mixture of maize and soya, which is used as basic feed. The experimental plan is the following: [table] 150 turkey poults of stock BUT 9 are selected and placed in cages fitted out with a water bowl and two feeders with a capacity of about 0.3 kg. 5 turkey poults are placed per cage. The animals receive during the pre-experimental period (i.e. from D0to D6, 8.00am), an identical standard starting feed. During the experimental phase (i.e. D6 from 8am to 5pm), the animals are separated into three groups 10 A, B and C. For each group and each cage of this group, the animals have the choice between two test items. For example the animals of group A may choose between test item no. 3 and test item no. 1. Feeding is ad libitum with checking of consumption at […]. Furthermore, at each measuring time, the two feeders are interchanged in order to prevent the animals from being accustomed to the positioning of the feeders. […] The illustrated consumption is the consumption per cage, i.e. for 5 turkey poults. This consumption satisfies the following formula: (weight of the feeder at the end of the period)-(weight of the feeder at the beginning of the period). Averages are performed for each group over 12 cages.
smiles,measurement,setting,value
"CSCC[C@H](N)C(=O)O [Test item no. 3, methionine]","Consumption, Average","T0 + 1 h, group A: choice test item no. 3 (0.2%) vs no. 1 (0.23%)",6.8 g
same,"Consumption, Average","T0 + 1 h, group B: choice test item no. 3 (0.2%) vs no. 2 (0.23%), no. 2 = hydroxy analog + 0.5 g/kg olf. additive",9.1 g
same,"Consumption, Average","T0 + 3 h, group A: choice test item no. 3 (0.2%) vs no. 1 (0.23%)",15.5 g
same,"Consumption, Average","T0 + 3 h, group B: choice test item no. 3 (0.2%) vs no. 2 (0.23%)",14.9 g
same,"Consumption, Average","T0 + 5 h, group A: choice test item no. 3 (0.2%) vs no. 1 (0.23%)",23.3 g
same,"Consumption, Average","T0 + 5 h, group B: choice test item no. 3 (0.2%) vs no. 2 (0.23%)",22.6 g
same,"Consumption, Average","T0 + 7 h, group A: choice test item no. 3 (0.2%) vs no. 1 (0.23%)",30.3 g
same,"Consumption, Average","T0 + 7 h, group B: choice test item no. 3 (0.2%) vs no. 2 (0.23%)",30.0 g
same,"Consumption, Average","T0 + 9 h, group A: choice test item no. 3 (0.2%) vs no. 1 (0.23%)",37.7 g
same,"Consumption, Average","T0 + 9 h, group B: choice test item no. 3 (0.2%) vs no. 2 (0.23%)",36.8a g

# — US20070166356A1, “Food supplement for animals, comprising an olfactory additive” (ADISSEO IRELAND LIMITED, priority 2004, published 2007)
